Measurements as given in patent publication US20120101100A1 (priority 2008, published 2012).
Converted amounts (≈) assume the structure as drawn. Where a name gives a salt, the structure may show the parent alone.

The compounds below were run against S. aureus GyrB ATPase (Staphylococcus aureus, UniProt P0A0K8) (assay: S. aureus (SAU) GyrB ATPase inhibition, malachite green phosphate detection (E. coli GyrA + S. aureus GyrB)). Conditions: 10 compound concentrations; 500 μM ATP.
Sequence of S. aureus GyrB ATPase (P0A0K8 whole entry): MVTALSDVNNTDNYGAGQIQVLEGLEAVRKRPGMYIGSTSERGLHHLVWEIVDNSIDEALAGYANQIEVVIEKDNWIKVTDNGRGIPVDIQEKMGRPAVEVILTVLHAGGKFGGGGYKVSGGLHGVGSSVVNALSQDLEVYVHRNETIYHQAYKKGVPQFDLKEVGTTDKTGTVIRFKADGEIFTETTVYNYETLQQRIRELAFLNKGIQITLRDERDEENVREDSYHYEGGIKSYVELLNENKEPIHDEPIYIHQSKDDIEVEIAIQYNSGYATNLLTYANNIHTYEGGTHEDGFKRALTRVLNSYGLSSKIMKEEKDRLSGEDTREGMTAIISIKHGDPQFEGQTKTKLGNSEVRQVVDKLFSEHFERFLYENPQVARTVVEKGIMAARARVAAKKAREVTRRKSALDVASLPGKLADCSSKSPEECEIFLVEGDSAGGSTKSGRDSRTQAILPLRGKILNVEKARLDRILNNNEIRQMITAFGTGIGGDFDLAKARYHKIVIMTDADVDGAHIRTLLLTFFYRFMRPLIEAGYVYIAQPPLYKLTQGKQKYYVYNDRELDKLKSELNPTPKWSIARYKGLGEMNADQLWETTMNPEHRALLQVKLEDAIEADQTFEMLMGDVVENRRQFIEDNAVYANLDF
Sequence of S. aureus GyrB ATPase (P0AES4 whole entry, further chain): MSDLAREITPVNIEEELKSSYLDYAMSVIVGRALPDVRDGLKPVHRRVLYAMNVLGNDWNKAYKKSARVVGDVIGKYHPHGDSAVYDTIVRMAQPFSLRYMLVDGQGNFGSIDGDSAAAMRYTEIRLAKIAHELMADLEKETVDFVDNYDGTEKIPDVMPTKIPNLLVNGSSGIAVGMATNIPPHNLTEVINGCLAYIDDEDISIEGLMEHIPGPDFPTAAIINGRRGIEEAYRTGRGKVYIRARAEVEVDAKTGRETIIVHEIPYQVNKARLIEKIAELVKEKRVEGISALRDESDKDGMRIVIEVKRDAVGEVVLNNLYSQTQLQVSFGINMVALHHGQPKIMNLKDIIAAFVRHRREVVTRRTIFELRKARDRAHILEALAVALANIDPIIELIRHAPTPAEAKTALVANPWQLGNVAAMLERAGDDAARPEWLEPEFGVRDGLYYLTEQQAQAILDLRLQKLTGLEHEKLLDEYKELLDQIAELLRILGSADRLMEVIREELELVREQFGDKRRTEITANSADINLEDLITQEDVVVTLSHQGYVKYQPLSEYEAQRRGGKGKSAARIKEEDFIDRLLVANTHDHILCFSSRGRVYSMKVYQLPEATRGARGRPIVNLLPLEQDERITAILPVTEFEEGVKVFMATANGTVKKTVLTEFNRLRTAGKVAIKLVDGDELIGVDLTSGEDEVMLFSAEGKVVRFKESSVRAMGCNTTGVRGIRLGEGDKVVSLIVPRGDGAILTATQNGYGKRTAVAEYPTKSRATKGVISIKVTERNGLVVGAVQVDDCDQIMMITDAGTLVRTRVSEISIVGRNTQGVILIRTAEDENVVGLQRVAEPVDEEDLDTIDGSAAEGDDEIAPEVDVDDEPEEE
Format: biochemical
Method in brief: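 E. coli GyrA and S. aureus GyrB (1.25 nM each) with 500 μM ATP and 5 μg/ml sheared salmon sperm DNA in 50 mM Hepes pH 7.5, 8.0 mM MgCl2. Released phosphate detected with ammonium molybdate/malachite green at 650 nm; 2% DMSO as 0% and 2 μM novobiocin as 100% inhibition; IC50 from 10 concentrations.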
`CCNC(=O)Nc1cc(-c2nc(C(F)(F)F)cs2)c(-c2cccnc2)cn1` [Example 14, 1-Ethyl-3-(4-(4-(trifluoromethyl)thiazol-2-yl)-3,3′-bipyridin-6-yl)urea] showed an IC50 of 10 nM. `CCNC(=O)Nc1cc(-c2nc(C(F)(F)F)cs2)c(-c2cncc(-c3ncc[nH]3)c2)cn1` [Example 25, 1-(5′-(1H-Imidazol-2-yl)-4-(4-(trifluoromethyl)thiazol-2-yl)-3,3′-bipyridin-6-yl)-3-ethylurea] showed an IC50 of 3 nM.

Same assay, conditions: compound concentration of 1.0 μM unless otherwise noted; average value where assay was carried out more than once; read-out: S. aureus (SAU) GyrB ATPase % Inhibition
`CCNC(=O)Nc1cc(-c2nc(C(F)(F)F)cs2)c(-c2cccnc2)cn1` [Example 14, 1-Ethyl-3-(4-(4-(trifluoromethyl)thiazol-2-yl)-3,3′-bipyridin-6-yl)urea] was tested, and the inhibition at 1 µM was 86%. `CCNC(=O)Nc1cc(-c2nc(C(F)(F)F)cs2)c(-c2cncc(S(N)(=O)=O)c2)cn1` [Example 23, 6′-(3-Ethylureido)-4′-(4-(trifluoromethyl)thiazol-2-yl)-3,3′-bipyridine-5-sulfonamide] showed an inhibition at 1 µM of 110%. Compound `CCNC(=O)Nc1cc(-c2nc(C(F)(F)F)c(CNCCN3CCOCC3)s2)c(-c2cncc(-c3n[nH]c(=O)o3)c2)cn1` [Example 51, 1-ethyl-3-(5′-(5-hydroxy-1,3,4-oxadiazol-2-yl)-4-(5-((2-morpholinoethylamino)methyl)-4-(trifluoromethyl)thiazol-2-yl)-3,3′-bipyridin-6-yl)urea trihydrochloride] has an inhibition at 1 µM of 98%. `CCNC(=O)Nc1cc(-c2nc(C(F)(F)F)cs2)c(-c2cc(-c3nnc(C)o3)cnc2OCCN(CC)CC)cn1` [Example 115, 1-(2′-(2-(diethylamino)ethoxy)-5′-(5-methyl-1,3,4-oxadiazol-2-yl)-4-(4-(trifluoromethyl)thiazol-2-yl)-3,3′-bipyridin-6-yl)-3-ethylurea] gave an inhibition at 1 µM of 96%. `CCNC(=O)Nc1cc(-c2nc(C(F)(F)F)c(CNC3CCCC3)s2)c(-c2cncc(-c3nnc(C)o3)c2)cn1` [Example 57, 1-(4-(5-((cyclopentylamino)methyl)-4-(trifluoromethyl)thiazol-2-yl)-5′-(5-methyl-1,3,4-oxadiazol-2-yl)-3,3′-bipyridin-6-yl)-3-ethylurea] was tested, and the inhibition at 1 µM was 96%. `CCNC(=O)Nc1cc(-c2nc(-c3ccccn3)cs2)c(-c2nc(-c3ncccn3)c(-c3n[nH]c(=O)o3)s2)cn1` [Example 201] was tested, and the inhibition at 1 µM was 107%. Work on `CCNC(=O)Nc1cc(-c2nc(C(F)(F)F)cs2)c(-c2cncc(-c3nnc(N4CC[C@@H](O)C4)o3)c2)cn1` [Example 178] yielded an inhibition at 1 µM of 97%. `CCNC(=O)Nc1cc(-c2nc(C(F)(F)F)cs2)c(-c2cc(-c3n[nH]c(=O)o3)cnc2OCCN2CCN(C)CC2)cn1` [Example 99, 1-Ethyl-3-(2′-(2-(4-methylpiperazin-1-yl)ethoxy)-5′-(5-oxo-4,5-dihydro-1,3,4-oxadiazol-2-yl)-4-(4-(trifluoromethyl)thiazol-2-yl)-3,3′-bipyridin-6-yl)urea] gave an inhibition at 1 µM of 97%. In the case of `CCNC(=O)Nc1cc(-c2nc(C(F)(F)F)cs2)c(-c2cncc(-c3ncc[nH]3)c2)cn1` [Example 25, 1-(5′-(1H-Imidazol-2-yl)-4-(4-(trifluoromethyl)thiazol-2-yl)-3,3′-bipyridin-6-yl)-3-ethylurea], the inhibition at 1 µM is reported as 100%. For `CCNC(=O)Nc1cc(-c2nc(C(F)(F)F)cs2)c(-c2cc(-c3n[nH]c(=O)o3)cnc2OC2CCOCC2)cn1` [Example 187], the inhibition at 1 µM was 100%. `CCNC(=O)Nc1cc(-c2nc(C(F)(F)F)c(CNC3CCOCC3)s2)c(-c2cncc(-c3nnc(C)o3)c2)cn1` [Example 58, 1-ethyl-3-(5′-(5-methyl-1,3,4-oxadiazol-2-yl)-4-(5-((tetrahydro-2H-pyran-4-ylamino)methyl)-4-(trifluoromethyl)thiazol-2-yl)-3,3′-bipyridin-6-yl)urea] was tested, and the inhibition at 1 µM was 97%. In the case of `CCNC(=O)Nc1cc(N2C[C@@H](C)O[C@@H](C)C2)c(-c2cncc(-c3n[nH]c(=O)o3)c2)cn1` [Example 150], the inhibition at 1 µM is reported as 96%. With `CCNC(=O)Nc1cc(-c2nc(-c3ccccn3)cs2)c(-c2cncc(S(N)(=O)=O)c2)cn1` [Example 105, 6′-(3-Ethylureido)-4′-(4-(pyridin-2-yl)thiazol-2-yl)-3,3′-bipyridine-5-sulfonamide] the inhibition at 1 µM was 101%. `CCNC(=O)Nc1cc(-c2nc(C(F)(F)F)cs2)c(-c2cc(OCC)nc(-c3n[nH]c(=O)o3)c2)cn1` [Example 75, 1-(2′-ethoxy-6′-(5-oxo-4,5-dihydro-1,3,4-oxadiazol-2-yl)-4-(4-(trifluoromethyl)thiazol-2-yl)-3,4′-bipyridin-6-yl)-3-ethylurea] was tested, and the inhibition at 1 µM was 99%. For `CCNC(=O)Nc1cc(-c2nc(C(F)(F)F)cs2)c(-c2cncc(-c3nnc(C(C)C)s3)c2)cn1` [Example 5, 1-Ethyl-3-(5′-(5-isopropyl-1,3,4-thiadiazol-2-yl)-4-(4-(trifluoromethyl)thiazol-2-yl)-3,3′-bipyridin-6-yl)urea], the inhibition at 1 µM was 112%. Compound `CC(C)NC(=O)Nc1cc(-c2nc(C(F)(F)F)cs2)c(-c2cncc(-c3n[nH]c(=O)o3)c2)cn1` [Example 42, 1-isopropyl-3-(5′-(5-oxo-4,5-dihydro-1,3,4-oxadiazol-2-yl)-4-(4-(trifluoromethyl)thiazol-2-yl)-3,3′-bipyridin-6-yl)urea] has an inhibition at 1 µM of 106%. In the case of `CCNC(=O)Nc1cc(-c2nc(C(F)(F)F)cs2)c(-c2cncc(-c3c(C)noc3C)c2)cn1` [Example 133], the inhibition at 1 µM is reported as 104%. `CCNC(=O)Nc1cc(-c2nc(-c3ccccc3)cs2)c(-c2ccnc(-c3n[nH]c(=O)o3)c2)cn1` [Example 95, 1-ethyl-3-(2′-(5-oxo-4,5-dihydro-1,3,4-oxadiazol-2-yl)-4-(4-phenylthiazol-2-yl)-3,4′-bipyridin-6-yl)urea] gave an inhibition at 1 µM of 99%. Compound `CCNC(=O)Nc1cc(N2CCCC(C)(C)C2)c(-c2cncc(-c3n[nH]c(=O)o3)c2)cn1` [Example 151] has an inhibition at 1 µM of 97%. With `CCNC(=O)Nc1cc(-c2nc(C3CCCC3)cs2)c(-c2cncc(-c3n[nH]c(=O)o3)c2)cn1` [Example 209] the inhibition at 1 µM was 95%. `CCNC(=O)Nc1cc(-c2nc(C(F)(F)F)cs2)c(-c2cncc(C3=NCCO3)c2)cn1` [Example 26, 1-(5′-(4,5-Dihydrooxazol-2-yl)-4-(4-(trifluoromethyl)thiazol-2-yl)-3,3′-bipyridin-6-yl)-3-ethylurea] showed an inhibition at 1 µM of 105%. `CCNC(=O)Nc1cc(-c2nc(C(F)(F)F)cs2)c(-c2cncc(C3=NOS(=O)N3)c2)cn1` (centres unmarked) [Example 20] gave an inhibition at 1 µM of 111%. Compound `CCNC(=O)Nc1cc(-c2nc(-c3cnn(C)c3)cs2)c(-c2cc(-c3n[nH]c(=O)o3)cnc2OCC2CC2)cn1` [Example 221] has an inhibition at 1 µM of 99%. Work on `CCCNC(=O)Nc1cc(-c2nc(C(F)(F)F)cs2)c(-c2cc(-c3nnc(C)o3)cnc2OCCN(C(C)C)C(C)C)cn1` [Example 123, 1-(2′-(2-(Diisopropylamino)ethoxy)-5′-(5-methyl-1,3,4-oxadiazol-2-yl)-4-(4-(trifluoromethyl)thiazol-2-yl)-3,3′-bipyridin-6-yl)-3-propylurea] yielded an inhibition at 1 µM of 78%. In the case of `CCNC(=O)Nc1cc(-c2nc3ccccc3s2)c(-c2cncc(-c3n[nH]c(=O)o3)c2)cn1` [Example 12, 1-(4-(benzo[d]thiazol-2-yl)-5′-(5-oxo-4,5-dihydro-1,3,4-oxadiazol-2-yl)-3,3′-bipyridin-6-yl)-3-ethylurea], the inhibition at 1 µM is reported as 108%.

Same assay, conditions: read-out: S. aureus (SAU) GyrB ATPase % Inhibition
Work on `CCNC(=O)Nc1cc(-c2nc(C(F)(F)F)cs2)c(-c2cncc(C#N)c2)cn1` [Example 2, 1-(5′-cyano-4-(4-(trifluoromethyl)thiazol-2-yl)-3,3′-bipyridin-6-yl)-3-ethylurea] yielded an inhibition at 1 µM of 88%.

What follows are compounds tested on Streptococcus pneumoniae (assay: Bacterial susceptibility testing in liquid media (MIC)). Conditions: against Streptococcus pneumoniae; lowest concentration reducing growth by 80% or more; 37° C., 24 hrs.
Format: cell-based
Experimental: Compounds were tested for antimicrobial activity by susceptibility testing in liquid media. Compounds were dissolved in dimethylsulfoxide and tested in 10 doubling dilutions in the susceptibility assays. The organisms used in the assay were grown overnight on suitable agar media and then suspended in a liquid medium appropriate for the growth of the organism. The suspension was a 0.5 McFarland and a further 1 in 10 dilution was made into the same liquid medium to prepare the final organism suspension in 100 μL. Plates were incubated under appropriate conditions at 37° C. for 24 hrs prior to reading. The Minimum Inhibitory Concentration was determined as the lowest drug concentration able to reduce growth by 80% or more.
For `CCNC(=O)Nc1cc(-c2nc(C(F)(F)F)cs2)c(-c2cccnc2)cn1` [Example 14, 1-Ethyl-3-(4-(4-(trifluoromethyl)thiazol-2-yl)-3,3′-bipyridin-6-yl)urea], the MIC was 0.39 µM (≈ 0.153 µg/mL).
